# Data reported in patent publication US7109220B2, “Amino substituted pyridinyl methanone compounds useful in treating kinase disorders” (Janssen Pharmaceutica N.V., priority 2003, dated 2006).
# What was measured:
# VEGF-R2 kinase = molecular target: T1, VEGF-R2 kinase (Rattus norvegicus, UniProt O08775); experiment: VEGF-R2 Kinase Screening Assay; format: biochemical; details: soluble rat VEGF-R2 kinase, 10 μM ATP; read-out: VEGF-R IC50
# T1 construct: polyhistidine (N)
# Procedure: A kinase reaction mixture was prepared containing 50 mM Tris-HCl pH=8, 10 mM MgCl2, 0.1 mM Na3PO4, 1 mM DTT, 10 μM ATP, 0.025 uM biotinylated peptide substrate and 0.8 μCuries per well^33P-γ-ATP [2000–3000 Ci/mmol]. 70 μL of the kinase reaction mixture was dispensed into the well of a streptavidin coated FlashPlate™ (Cat. #SMP103, NEN, Boston, Mass.). 1 μL of test compound stock in 100% DMSO was added to the wells resulting in a final concentration of 1% DMSO in the mixture with a 100 μL final reaction volume. Soluble rat VEGF-R2 kinase^3 was diluted in 50 mM Tris-HCl pH=8.0, 0.1% BSA at a concentration of 5 ng per microliter and 30 μL (150 ng enzyme per test well) was added to each well to initiate the reaction. The reaction was incubated for one hour at 30° C. At the end of the 1-hour incubation, the reaction was terminated by aspirating the reaction mixture from the plate and washing the wells twice with PBS containing 100 mM EDTA. The PLC1 biotinylated peptide substrate became immobilized on the Flashplate™ and the incoporation of ^33P-γ-ATP was measured by reading the plate on a scintillation counter. Inhibition of the enzymatic activity of the VEGF-R was measured by observing a reduced amount of ^33P-γ-ATP incorporated into the immobilized peptide. ^3VEGF-R2 kinase (Vascular Endothelial Growth Factor Receptor-2): a fusion protein containing a polyhistidine tag at the N-terminus followed by amino acids 786–1343 of the rat VEGF-R2 kinase domain GenBank Accession #U93306); Peptide Substrate (Biotin)KHKKLAEGSAYEEV-Amide
# (§1) IC50 values listed as >10 or >100 indicate no observed 50% inhibition at the highest dose tested, nor was an inhibition maximum observed.
# CDK1:Cyclin-B = molecular target: T2, CDK1:Cyclin-B (Homo sapiens, UniProt P06493); experiment: CDK1 Screening Assay; format: biochemical; details: 10 μM ATP, histone-H1 peptide substrate, 1 hour at 30° C.
# T2 construct: purchased New England Biolabs, Beverly, Mass; (CDK1); BIOMOL, Plymouth Meeting, Pa; (Cyclin-B) #6020 (CDK1); #SE-195 (Cyclin-B); host or cells: insect cells
# T2 sequence (P06493 whole entry): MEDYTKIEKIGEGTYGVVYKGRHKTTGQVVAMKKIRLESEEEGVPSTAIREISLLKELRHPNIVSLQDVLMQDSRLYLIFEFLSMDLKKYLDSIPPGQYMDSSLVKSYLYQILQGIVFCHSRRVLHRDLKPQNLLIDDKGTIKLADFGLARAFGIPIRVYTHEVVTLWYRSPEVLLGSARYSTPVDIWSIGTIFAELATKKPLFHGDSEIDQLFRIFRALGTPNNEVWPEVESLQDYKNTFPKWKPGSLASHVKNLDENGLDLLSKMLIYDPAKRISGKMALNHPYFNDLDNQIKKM
# T2 sequence (P14635 whole entry partner): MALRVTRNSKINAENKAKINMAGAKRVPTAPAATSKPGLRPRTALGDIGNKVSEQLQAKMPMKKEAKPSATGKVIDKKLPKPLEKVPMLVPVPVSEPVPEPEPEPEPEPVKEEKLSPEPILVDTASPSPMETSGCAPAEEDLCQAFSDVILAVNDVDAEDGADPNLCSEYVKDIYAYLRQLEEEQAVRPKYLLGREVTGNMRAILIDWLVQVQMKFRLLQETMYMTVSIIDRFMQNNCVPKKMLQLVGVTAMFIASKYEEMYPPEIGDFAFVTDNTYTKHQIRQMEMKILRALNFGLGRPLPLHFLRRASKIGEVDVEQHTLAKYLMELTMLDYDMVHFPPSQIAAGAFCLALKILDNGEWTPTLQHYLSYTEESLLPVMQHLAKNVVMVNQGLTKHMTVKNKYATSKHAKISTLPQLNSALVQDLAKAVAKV
# Procedure: A kinase reaction mixture was prepared containing 50 mM Tris-HCl pH=8, 10 mM MgCl2, 0.1 mM Na3PO4, 1 mM DTT, 10 μM ATP, 0.025 μM biotinylated histone-H1 peptide substrate and 0.2 μCuries per well^33P-γ-ATP [2000–3000 Ci/mmol]. 70 μL of the kinase reaction mixture was dispensed into the well of a streptavidin coated FlashPlate™ (Cat. #SMP103, NEN, Boston, Mass.). Then 1 μL of test compound stock in 100% DMSO was added to the wells resulting in a final concentration of 1% DMSO in the reaction with a 100 μL final reaction volume. CDK1:Cyclin-B protein^1 was diluted in 50 mM Tris-HCl pH=8.0, 0.1% BSA at a concentration of 1 ng per microliter. 30 μL (30 ng enzyme per test well) was added to each well to initiate the reaction, The reaction was incubated for one hour at 30° C. At the end of the 1-hour incubation, the reaction was terminated by aspirating the reaction mixture from the plate and washing the wells twice with PBS containing 100 mM EDTA. The histone-H1 biotinylated peptide substrate became immobilized on the Flashplate™ and the incorporation of ^33P-γ-ATP was measured by reading the plate on a scintillation counter. Inhibition of the enzymatic activity of CDK1 was measured by observing a reduced amount of ^33P-γ-ATP incorporated into the immobilized peptide. ^1CDK1 (cyclin dependent kinase 1) was isolated from insect cells expressing both the human CDK1 catalytic subunit and its positive regulatory subunit Cyclin B (CDK1: New England Biolabs, Beverly, Mass., Cat. #6020; Cyclin-B: BIOMOL, Plymouth Meeting, Pa., Cat. #SE-195); Peptide Substrate (Biotin)KTPKKAKKPKTPKKAKKL-Amide.
# as §1
# T1 sequence (O08775 786-1343): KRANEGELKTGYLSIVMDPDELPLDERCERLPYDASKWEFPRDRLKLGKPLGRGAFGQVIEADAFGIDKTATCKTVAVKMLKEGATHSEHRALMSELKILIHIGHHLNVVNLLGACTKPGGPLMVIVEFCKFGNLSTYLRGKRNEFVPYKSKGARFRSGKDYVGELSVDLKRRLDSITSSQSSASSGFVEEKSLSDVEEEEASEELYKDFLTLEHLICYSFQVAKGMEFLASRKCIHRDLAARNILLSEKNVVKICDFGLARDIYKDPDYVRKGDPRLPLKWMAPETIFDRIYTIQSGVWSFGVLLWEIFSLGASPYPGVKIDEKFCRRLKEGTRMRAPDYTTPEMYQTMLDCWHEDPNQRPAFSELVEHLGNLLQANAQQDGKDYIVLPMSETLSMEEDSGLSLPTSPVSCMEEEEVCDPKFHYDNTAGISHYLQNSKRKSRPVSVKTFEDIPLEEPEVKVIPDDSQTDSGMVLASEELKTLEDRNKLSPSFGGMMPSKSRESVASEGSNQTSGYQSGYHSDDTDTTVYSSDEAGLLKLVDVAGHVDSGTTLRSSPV
Compound,IC50 (VEGF-R2 kinase) [µM],IC50 (CDK1:Cyclin-B) [µM]
"Nc1ccc(C(=O)c2cccs2)c(N)n1 [Cpd 5, (2,6-diamino-3-pyridinyl)-2-thienylmethanone]",> 100,> 100
"Nc1nc(Nc2ccc(S(=O)(=O)N(Cc3ccccc3)Cc3ccccc3)cc2)ccc1C(=O)c1c(F)cccc1F [Cpd 2b, 4-[[6-amino-5-(2,6-difluorobenzoyl)-2-pyridinyl]amino]-N,N-bis(phenylmethyl)benzenesulfonamide]",> 10,> 10
"Nc1nc(Nc2ccccc2NC(=O)c2ccccc2)ccc1C(=O)c1c(F)cccc1F [Cpd 22, N-[2-[[6-amino-5-(2,6-difluorobenzoyl)-2-pyridinyl]amino]phenyl]benzamide]",> 100,> 100
"Nc1nc(Nc2ccccc2[N+](=O)[O-])ccc1C(=O)c1c(F)cccc1F [Cpd 12, [2-amino-6-[(2-nitrophenyl)amino]-3-pyridinyl](2,6-difluorophenyl)methanone]",> 10,> 10
"CN(C)S(=O)(=O)c1ccc(Nc2ccc(C(=O)c3ccccc3F)c(N)n2)cc1 [Cpd 24, 4-[[6-amino-5-(2-fluorobenzoyl)-2-pyridinyl]amino]-N,N-dimethyl benzenesulfonamide]",> 100,
"Nc1ccc(Nc2ccc(C(=O)c3c(F)cccc3F)c(N)n2)cc1 [Cpd 17, [2-amino-6-[(4-aminophenyl)amino]-3-pyridinyl](2,6-difluorophenyl)methanone]",> 10,
"CN(C)S(=O)(=O)c1ccc(Nc2ccc(C(=O)c3ccccc3)c(N)n2)cc1 [Cpd 25, 4-[(6-amino-5-benzoyl-2-pyridinyl)amino]-N,N-dimethylbenzenesulfonamide]",> 100,
"Nc1nc(Nc2ccccc2NS(=O)(=O)c2ccccc2)ccc1C(=O)c1c(F)cccc1F [Cpd 23, N-[2-[[6-amino-5-(2,6-difluorobenzoyl)-2-pyridinyl]amino]phenyl]benzenesulfonamide]",> 100,> 100
"Nc1nc(Nc2ccc(S(N)(=O)=O)cc2)ccc1C(=O)c1c(F)cccc1F [Cpd 6, 4-[[6-amino-5-(2,6-difluorobenzoyl)-2-pyridinyl]amino]benzenesulfonamide]",> 10,
"CNc1ccc(Nc2ccc(C(=O)c3c(F)cccc3F)c(N)n2)cc1 [Cpd 18, [2-amino-6-[[4-(methylamino)phenyl]amino]-3-pyridinyl](2,6-difluorophenyl)methanone]",> 10,
"Nc1ccc(C(=O)c2ccccc2)c(N)n1 [Cpd 3, (2,6-diamino-3-pyridinyl)phenylmethanone]",> 10,
"Nc1nc(Nc2cccc([N+](=O)[O-])c2)ccc1C(=O)c1c(F)cccc1F [Cpd 10, [2-amino-6-[(3-nitrophenyl)amino]-3-pyridinyl](2,6-difluorophenyl)methanone]",> 100,
"CC(=O)Nc1ccccc1Nc1ccc(C(=O)c2c(F)cccc2F)c(N)n1 [Cpd 21, N-[2-[[6-amino-5-(2,6-difluorobenzoyl)-2-pyridinyl]amino]phenyl]acetamide]",> 100,> 100
"Nc1ccc(C(=O)c2ccccc2F)c(N)n1 [Cpd 2, (2,6-diamino-3-pyridinyl)(2-fluorophenyl)methanone]",> 10,
"Nc1nc(Nc2ccc(C(=O)O)cc2)ccc1C(=O)c1c(F)cccc1F [Cpd 16, 4-[[6-amino-5-(2,6-difluorobenzoyl)-2-pyridinyl]amino]benzoic acid]",> 10,
"4-[[6-amino-5-(2,6-difluorobenzoyl)-2-pyridinyl]amino]benzonitrile [Cpd 15]",> 10,0.95
"CN(C)S(=O)(=O)c1ccc(Nc2ccc(C(=O)c3cccs3)c(N)n2)cc1 [Cpd 29, 4-[[6-amino-5-(2-thienylcarbonyl)-2-pyridinyl]amino]-N,N-dimethylbenzene sulfonamide]",> 100,
"CN(C)S(=O)(=O)c1ccc(Nc2ccc(C(=O)c3c(F)cccc3F)c(N)n2)cc1 [Cpd 7, 4-[[6-amino-5-(2,6-difluorobenzoyl)-2-pyridinyl]amino]-N,N-dimethylbenzenesulfonamide]",> 10,0.26
"Nc1ccccc1Nc1ccc(C(=O)c2c(F)cccc2F)c(N)n1 [Cpd 20, [2-amino-6-[(2-aminophenyl)amino]-3-pyridinyl](2,6-difluorophenyl)methanone]",> 100,
"Nc1nc(Nc2ccccn2)ccc1C(=O)c1c(F)cccc1F [Cpd 14, [2-amino-6-(2-pyridinylamino)-3-pyridinyl](2,6-difluorophenyl)methanone]",> 100,
"Nc1nc(Nc2cccc(Cl)c2)ccc1C(=O)c1c(F)cccc1F [Cpd 11, [2-amino-6-[(3-chlorophenyl)amino]-3-pyridinyl](2,6-difluorophenyl)methanone]",> 100,6.16
"Nc1nc(Nc2ccc(NS(=O)(=O)c3ccccc3)cc2)ccc1C(=O)c1c(F)cccc1F [Cpd 19, N-[4-[[6-amino-5-(2,6-difluorobenzoyl)-2-pyridinyl]amino]phenyl]benzenesulfonamide]",> 10,
"Nc1nc(Nc2ccccc2)ccc1C(=O)c1c(F)cccc1F [Cpd 13, [2-amino-6-(phenylamino)-3-pyridinyl](2,6-difluorophenyl)methanone]",> 100,21.7
"Nc1ccc(C(=O)c2ccco2)c(N)n1 [Cpd 4, (2,6-diamino-3-pyridinyl)-2-furylmethanone]",> 100,> 100
"CCN(CC)S(=O)(=O)c1ccc(Nc2ccc(C(=O)c3ccccc3)c(N)n2)cc1 [Cpd 26, 4-[(6-amino-5-benzoyl-2-pyridinyl)amino]-N,N-diethylbenzenesulfonamide]",> 100,> 100
"CCN(CC)S(=O)(=O)c1ccc(Nc2ccc(C(=O)c3ccco3)c(N)n2)cc1 [Cpd 28, 4-[[6-amino-5-(2-furanylcarbonyl)-2-pyridinyl]amino]-N,N-diethylbenzenesulfonamide]",> 100,> 100
"CN(C)S(=O)(=O)c1ccc(Nc2ccc(C(=O)c3ccco3)c(N)n2)cc1 [Cpd 27, 4-[[6-amino-5-(2-furanylcarbonyl)-2-pyridinyl]amino]-N,N-dimethyl benzenesulfonamide]",> 100,
